From patent EP4566610A1, “SENOLYTIC COMPOUNDS” (Universidade de Santiago de Compostela, priority 2023, dated 2025)

What was measured:
[1] = test system: A549 Bleomycin-Induced Senescent Cells; experiment: Crystal violet cell viability / IC50 assay in bleomycin-induced senescent A549 cells; type: cell-based, human; settings: for IC50: Homo sapiens, A549
Procedure: Navitoclax (ABT-263, Abbvie) was used as a positive control for senolysis. For chemotherapy-induced senescence we used Bleomycin (Mylan Pharmaceuticals) at 20 µM for 5 days. Alternatively, we also used 5 µM Palbociclib (MedChemExpress) for 7 days. Ionizing radiation at a dose of 10 Gy was applied to induce senescence. Doxycycline (Sigma), a stable tetracycline analogue, was used as an inducer for inducible expression systems at 1 µg/mL. Cell viability was tested by crystal violet staining as reported previously (Feoktistova et al. 2016). Both proliferative and senescent cells from different cell lines were plated at a concentration of 1,2 × 10^4 cells per well in a 96-well plate. After a 24 h incubation period, they were treated with Compound 96558 at decreasing concentrations (with DMSO as the control) and at various time points. […] After staining, the excess dye was removed, washed 3 times with water, and air dried. […] The absorbance was measured using a BioTek microplate reader equipped with Gen5 software. […] Cell viability was evaluated following the previously mentioned protocol of crystal violet staining. The IC50 calculations were performed using GraphPad Prism® software. First, we sought to validate the senolytic potential of the Candidate Compound within the same cell type and under the same conditions of senescence induction as employed during the high-throughput screening. To achieve this, we used A549 cells in which senescence was induced using bleomycin (20 µM; 5 days). Subsequently, following the confirmation of the senescent status of these cells in comparison to the proliferative control (Figure 8A), a cell viability assay was performed, employing crystal violet staining, as detailed in the Materials and Methods section. After evaluating the senolytic activity of the Candidate Compound at the same concentration used in the screening (Figure 9), we conducted further tests using a range of concentrations, from 100 µM to 0.3125 µM, in A549 tumor cells. These tests were performed both in their non-treated (proliferating) state and after the induction of senescence with Bleomycin. In addition, we also assessed the drug's ability to affect cell viability at different time points (24, 48, and 72 hours) by renewing the Compound every 24 hours.

[2] = test system: A549 tumor cells, non-treated (proliferating) state; experiment: Crystal violet cell viability / IC50 assay in proliferative A549 cells; type: cell-based, human
Procedure: (§1) Cell viability was tested by crystal violet staining as reported previously (Feoktistova et al. 2016). Both proliferative and senescent cells from different cell lines were plated at a concentration of 1,2 × 10^4 cells per well in a 96-well plate. After a 24 h incubation period, they were treated with Compound 96558 at decreasing concentrations (with DMSO as the control) and at various time points. Subsequently, cells were washed with phosphate-buffered saline (PBS, Merck) and fixed with paraformaldehyde (Electron Microscopy Science) prepared at 2% in PBS for 15 minutes, followed by a 5 min staining process using a 0.1% crystal violet solution in Milli-Q water. After staining, the excess dye was removed, washed 3 times with water, and air dried. Captured crystal violet was solubilized in 10% acetic acid and incubated on an orbital shaker at room temperature for 10 min. The absorbance was measured using a BioTek microplate reader equipped with Gen5 software.
(§2) Cell viability was evaluated following the previously mentioned protocol of crystal violet staining. The IC50 calculations were performed using GraphPad Prism® software.
(§3) First, we sought to validate the senolytic potential of the Candidate Compound within the same cell type and under the same conditions of senescence induction as employed during the high-throughput screening. To achieve this, we used A549 cells in which senescence was induced using bleomycin (20 µM; 5 days). Subsequently, following the confirmation of the senescent status of these cells in comparison to the proliferative control (Figure 8A), a cell viability assay was performed, employing crystal violet staining, as detailed in the Materials and Methods section.
(§4) After evaluating the senolytic activity of the Candidate Compound at the same concentration used in the screening (Figure 9), we conducted further tests using a range of concentrations, from 100 µM to 0.3125 µM, in A549 tumor cells. […] In addition, we also assessed the drug's ability to affect cell viability at different time points (24, 48, and 72 hours) by renewing the Compound every 24 hours.

[3] = test system: Radiation-Induced senescent A549cells; experiment: Crystal violet cell viability / IC50 assay in ionizing radiation-induced senescent A549 cells; type: cell-based, human; settings: for concentration showing enhanced efficacy (greater cytotoxic effect on senescent cells than proliferating): ionizing radiation 10 Gy
Procedure: (§5) Navitoclax (ABT-263, Abbvie) was used as a positive control for senolysis. For chemotherapy-induced senescence we used Bleomycin (Mylan Pharmaceuticals) at 20 µM for 5 days. Alternatively, we also used 5 µM Palbociclib (MedChemExpress) for 7 days. Ionizing radiation at a dose of 10 Gy was applied to induce senescence. Doxycycline (Sigma), a stable tetracycline analogue, was used as an inducer for inducible expression systems at 1 µg/mL.
as §1, §2
Subsequently, we aimed to assess the senolytic capability of our Compound using a senescence induction method different from the previous chemotherapy-induced approach. In this regard, we exposed A549 cells to ionizing radiation, confirmed the senescent status (Figure 8B) and conducted a similar assay as described previously.

[4] = test system: U87MG cells induced into senescence with palbociclib; experiment: Crystal violet cell viability / IC50 assay in palbociclib-induced senescent U87MG cells; type: cell-based, human
Procedure: as §5
as §1, with “Captured crystal violet was solubilized in 10% acetic acid and incubated on an orbital shaker at room temperature for 10 min.” left out
Cell viability was evaluated following the previously mentioned protocol of crystal violet staining. […]

[5] = test system: U87MG glioma cell line, proliferating cells; experiment: Crystal violet cell viability / IC50 assay in proliferating U87MG cells; type: cell-based; settings: Homo sapiens, U-87 MG, read-out: quantity required to eliminate at least 50% of proliferative counterparts
Procedure: as §1, §2
To thoroughly explore the senolytic potential of Compound 96558, we employed a different human tumor cell line, specifically the U87MG glioma cell line. […]

senescent A549 cells = experiment: Apoptosis assay (Annexin V-FITC/7-AAD flow cytometry) in bleomycin-induced senescent A549 cells; type: cell-based, human
Procedure: (§6) A549 cells were resuspended into a single-cell suspension and plated at a density of 3 × 10^5 cells per well in six-well plates. After culturing for 24 h, the cells were treated with DMSO (control), the Compound, or a combination of pan-caspase inhibitor Z-VAD-FMK (Santa Cruz Biotech.) and the Compound. Following a 24 h incubation with the drugs, the cells were harvested by centrifugation at 3,000 rpm for 5 minutes and washed twice with PBS. Subsequently, the cells were resuspended in 500 µl of binding buffer. Then, 5 µl of Annexin V-FITC and 5 µl of 7-AAD (Elabscience) were used to detect the effect of Compound 96558 on cell apoptosis. The resulting samples were immediately analyzed by flow cytometry (FACScan, BD Biosciences), using the FITC channel (excitation: 488 nm and emission: 525 nm) and the 7-AAD channel (excitation: 488 nm and emission: 670 nm).
(§7) To investigate the potential mechanism of cell death by which the compound eliminates senescent cells, we analyzed apoptosis induction. For this, we conducted a flow cytometry assay to evaluate Annexin-V staining on bleomycin-induced senescent cells treated or not with our senolytic Candidate.

A549 proliferative cells = experiment: Apoptosis assay (Annexin V-FITC/7-AAD flow cytometry) in proliferative A549 cells; type: cell-based, human; settings: 10 µM, 24 h
Procedure: as §6, §7

[6] = Crystal violet cell viability / IC50 assay in proliferative A549 cells; type: cell-based, human; settings: human, A549 tumor cells, non-treated (proliferating); untreated (proliferative) cells, at the tested concentration
Procedure: as §1, §2, §3, §4

Compound: C#CC(=O)NCCNc1nc(C)nc(C)c1Br [Compound 96558]
- concentration with effective cytotoxicity in senescent cells with minimal impact on proliferative cells ([1]; 24 hours, bleomycin 20 µM, 5 days): around 12.5 µM
- concentration effective for favorable senolytic effect ([1]; 48 hours, Compound renewed every 24 hours): 6.25 µM
- most efficient concentration for senolytic effect ([1]; 72 hours, Compound renewed every 24 hours): 3.125 µM
- senolytic index, the ratio between the IC50 values on proliferating cells over senescent ones ([1]; A549, bleomycin, 24, 48, 72 hours): increases with time
- IC50 ([1]; senescent cells, 24-hour): 3730 nM
- IC50 ([1]; senescent cells, 48 hours of treatment): 1830 nM
- IC50 ([1]; senescent cells, 72 hours): 1410 nM
- viability ([1]; senescent cells, low concentrations, 24, 48, and 72 hours): efficient elimination of the senescent cells
- IC50 values observed for proliferative cells ([2]; compared with senescent cells, 24, 48 and 72 hours): consistently higher
- viability ([2]; proliferative cells, low concentrations, 24, 48, and 72 hours): intact viability
- concentration showing enhanced efficacy (greater cytotoxic effect on senescent cells than proliferating) ([3]; 24-hour): approximately 12.5 µM
- concentration showing enhanced efficacy (greater cytotoxic effect on senescent cells than proliferating) ([3]; 48 hours): 2.5 µM
- concentration showing enhanced efficacy (greater cytotoxic effect on senescent cells than proliferating) ([3]; 72 hours): 2.5 µM
- IC50 curves ([3]; senescent versus proliferative counterparts, all examined conditions): lower Compound concentrations are required for the eradication of senescent cells
- IC50 ([4]; Homo sapiens, U-87 MG, senescent cells, palbociclib-induced): 1790 nM
- senolytic index ([4]; U87MG, IC50 proliferating over senescent): 16.6
- IC50 [5]: 29.8 µM
- apoptosis induction (FITC-Annexin V-positive and 7-AAD positive) (senescent A549 cells; Compound treatment versus DMSO, 24 h): a significant proportion of cells were in late apoptosis
- apoptosis induction (FITC-Annexin V and 7-AAD staining) (senescent A549 cells; combination with pan-caspase inhibitor Z-VAD-FMK): the majority of cells appeared as viable cells
- apoptosis induction (A549 proliferative cells): apoptosis was not induced

Compound: CC1(C)CCC(c2ccc(Cl)cc2)=C(CN2CCN(c3ccc(C(=O)NS(=O)(=O)c4ccc(N[C@H](CCN5CCOCC5)CSc5ccccc5)c(S(=O)(=O)C(F)(F)F)c4)cc3)CC2)C1 [Navitoclax, reference compound]
- viability ([1]; Bleomycin-induced senescent cells, at the tested concentration): significantly affected
- viability [6]: ~100%
